Reference: paper PMC9186373, “Design, synthesis, and biological evaluation of novel carbazole derivatives as potent DNMT1 inhibitors with reasonable PK properties” (Journal of Enzyme Inhibition and Medicinal Chemistry, 2022)
pIC50: −log10 of the molar value. Like-named read-outs stand apart in the source and are kept apart here.

How the values were obtained:
DNMT1 = DNMT1 (Homo sapiens, UniProt P26358); assay: H3-labelled radioactive methylation assay; format: biochemical; conditions: H3-labeled radioactive methylation assay; 40 nM DNMT1
In short: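 DNMT1 (40 nM) was preincubated with a compound range for 15 min at room temperature, then given 0.1 µM ^3H-SAM and 0.25 µg/mL poly(dI-dC)·poly(dI-dC) in 50 mM Tris-HCl pH 8.0, 1 mM DTT, 5% glycerol, 100 µg/mL BSA. After 60 min at 37 °C, filter-bound radioactivity was counted by scintillation. IC50 was taken from a non-linear dose-response fit.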

DNMT3B/3L = assay: Methyltransferase enzymatic selectivity profiling, DNMT3B/3L; format: biochemical; conditions: 1 - selected enzyme inhibition/DNMT1 inhibition; 50 µM
Description: (§1) In addition to DNMT1, there are many other methyltransferases that can bind with S-adenosyl-L-methionine (SAM) to facilitate transmethylation reactions[24]^,[25]. To investigate the selectivity of these potent compounds for DNMT1, we then evaluated the inhibitory activities against DNMT1 and other important methyltransferases at the concentration of 50 µM, including DNMT3A/3L, DNMT3B/3L, and other SAM-dependent enzymes[1]^,[2]^,[26], such as EZH2[27], LSD1[28], G9a (histone H3 lysine 9 methyltransferase)[29].
Here, the selectivity of non-nucleoside DNMT1 inhibitors is somewhat predictable because other methyltransferases mentioned above catalyse different substrates and share very low homology with DNMT1, even in their catalytic domain[30–32]. Subsequently, the screened compounds were evaluated in a dose-dependent assay against HCT116 (human colon cancer cell line) and A549 (human lung carcinoma cell line).
(§2) 493 Relative selectivity index
(§3) 494 Relative selectivity index of DNMT1 is calculated by formula: DNMT1-selectivity
(§4) 495 index =1 - selected enzyme inhibition/DNMT1 inhibition. The closer
(§5) 496 that this value is to 1 or even more than 1, the better DNMT1-selectivity the of the
(§6) 498 Table S1. Relative selectivity index of DNMT1
Cpd. […]

EZH2 = assay: Methylation inhibition assay (AlphaLisa), EZH2; format: biochemical; conditions: 50 µM; for inhibitory activity against EZH2: Figure 3; for Relative selectivity index of DNMT1 vs EZH2: 1 - selected enzyme inhibition/DNMT1 inhibition
Description: (§7) All the compounds were first screened using an ELISA EpiQuik DNA methyltransferase (DNMT) activity/inhibitor assay kit (Epigentek). To measure the effects of the compounds on human DNMT1 activity, 200 nM purified DNMT1 was incubated with 50 µM and 100 µM of the different compounds and S-adenosylmethionine in the DNMT assay buffer in the assay plate at 37 °C for 2 h[36]. Next, every sample was incubated with the capture and detection antibody, followed by incubation with developer solution for 10 min at room temperature. The absorbance was measured at 450 nm using a POLARstar Omega microplate reader (BMG). S-Adenosylhomocysteine (AdoHcy) was used as a positive control. Methylation inhibition assays for EZH2, LSD, and G9a were performed in modified Tris, pH 9.0, buffer using AlphaLisa technology. An amount of 10 µL of the reaction system contained a corresponding concentration of SAM (Sigma) (EZH2 50 µM, LSD 50 µM, and G9a 50 µM), which was the Km value in each enzymatic reaction, plus 100 nM biotinylated peptide H3 (1–21) (synthesis by GLChina) and the relevant enzyme concentration (0.03 nM EZH2, 0.03 nM LSD, and 0.03 nM G9a). The proteins were preincubated with various compound concentrations for 15 min at room temperature before the substrate and SAM were added. After 60 min of incubation at room temperature, acceptor and donor AlphaLisa beads were added according to the manufacturer’s recommendations. The signals were read in Alpha mode with an EnSpire multimode plate reader (PerkinElmer). IC50 values were derived by fitting the data for the inhibition percentage to a dose-response curve by non-linear regression in GraphPad Prism 5.0[20].
as §1, §2, §3, §4, §5, §6
Cpd. […]

LSD1 = assay: Methylation inhibition assay (AlphaLisa), LSD1; format: biochemical; conditions: 1 - selected enzyme inhibition/DNMT1 inhibition; 50 µM
Description: as §7, §1, §2, §3, §4, §5, §6
Cpd. […]

[1] = tested on: A549 (human lung cancer cells); assay: MTT assay, A549; format: cell-based
Description: The human lung cancer cells (A549) and human colon cancer cells (HCT116) were cultured in an RPMI-1640 medium containing 10% FBS, 100 U/mL streptomycin, and 100 U/mL penicillin at 37 °C in a humidified atmosphere with 5% CO2. All compounds were dissolved in DMSO and stock solutions were stored at −20 °C. Reagents were freshly diluted to the marked concentrations with a culture medium before use. DMSO concentration in experimental conditions never exceeded 0.1% (v/v). All cell lines were provided by the cell laboratory, School of pharmaceutical sciences, Guangzhou Medical University.
Cell viability was detected using an MTT assay kit. Cells were seeded into 96-well plates at a density of ∼1.0 × 10^4/well. 24 h later, sextuplicate wells were treated with media and new compounds at a fixed concentration (50 µM). After 24, 48, and 72 h, the drug-containing medium was replaced by a 100 µL fresh medium with 5 mg/mL MTT solution. After 4 h of incubation, the medium with MTT was removed, and 100 µL of DMSO was added to each well. The plates were gently agitated until the purple formazan crystals were dissolved, and the OD490 was determined using a […] (Olympus BX53, Japan). The data were calculated and plotted as the percent viability compared to the control.

[2] = 24 h, read-out: Inh % at 50 μM, A549, 24 h
[3] = 48 h, read-out: Inh % at 50 μM, A549, 48 h
[4] = 72 h, read-out: Inh % at 50 μM, A549, 72 h

DNMT1, sequence (P26358 whole entry): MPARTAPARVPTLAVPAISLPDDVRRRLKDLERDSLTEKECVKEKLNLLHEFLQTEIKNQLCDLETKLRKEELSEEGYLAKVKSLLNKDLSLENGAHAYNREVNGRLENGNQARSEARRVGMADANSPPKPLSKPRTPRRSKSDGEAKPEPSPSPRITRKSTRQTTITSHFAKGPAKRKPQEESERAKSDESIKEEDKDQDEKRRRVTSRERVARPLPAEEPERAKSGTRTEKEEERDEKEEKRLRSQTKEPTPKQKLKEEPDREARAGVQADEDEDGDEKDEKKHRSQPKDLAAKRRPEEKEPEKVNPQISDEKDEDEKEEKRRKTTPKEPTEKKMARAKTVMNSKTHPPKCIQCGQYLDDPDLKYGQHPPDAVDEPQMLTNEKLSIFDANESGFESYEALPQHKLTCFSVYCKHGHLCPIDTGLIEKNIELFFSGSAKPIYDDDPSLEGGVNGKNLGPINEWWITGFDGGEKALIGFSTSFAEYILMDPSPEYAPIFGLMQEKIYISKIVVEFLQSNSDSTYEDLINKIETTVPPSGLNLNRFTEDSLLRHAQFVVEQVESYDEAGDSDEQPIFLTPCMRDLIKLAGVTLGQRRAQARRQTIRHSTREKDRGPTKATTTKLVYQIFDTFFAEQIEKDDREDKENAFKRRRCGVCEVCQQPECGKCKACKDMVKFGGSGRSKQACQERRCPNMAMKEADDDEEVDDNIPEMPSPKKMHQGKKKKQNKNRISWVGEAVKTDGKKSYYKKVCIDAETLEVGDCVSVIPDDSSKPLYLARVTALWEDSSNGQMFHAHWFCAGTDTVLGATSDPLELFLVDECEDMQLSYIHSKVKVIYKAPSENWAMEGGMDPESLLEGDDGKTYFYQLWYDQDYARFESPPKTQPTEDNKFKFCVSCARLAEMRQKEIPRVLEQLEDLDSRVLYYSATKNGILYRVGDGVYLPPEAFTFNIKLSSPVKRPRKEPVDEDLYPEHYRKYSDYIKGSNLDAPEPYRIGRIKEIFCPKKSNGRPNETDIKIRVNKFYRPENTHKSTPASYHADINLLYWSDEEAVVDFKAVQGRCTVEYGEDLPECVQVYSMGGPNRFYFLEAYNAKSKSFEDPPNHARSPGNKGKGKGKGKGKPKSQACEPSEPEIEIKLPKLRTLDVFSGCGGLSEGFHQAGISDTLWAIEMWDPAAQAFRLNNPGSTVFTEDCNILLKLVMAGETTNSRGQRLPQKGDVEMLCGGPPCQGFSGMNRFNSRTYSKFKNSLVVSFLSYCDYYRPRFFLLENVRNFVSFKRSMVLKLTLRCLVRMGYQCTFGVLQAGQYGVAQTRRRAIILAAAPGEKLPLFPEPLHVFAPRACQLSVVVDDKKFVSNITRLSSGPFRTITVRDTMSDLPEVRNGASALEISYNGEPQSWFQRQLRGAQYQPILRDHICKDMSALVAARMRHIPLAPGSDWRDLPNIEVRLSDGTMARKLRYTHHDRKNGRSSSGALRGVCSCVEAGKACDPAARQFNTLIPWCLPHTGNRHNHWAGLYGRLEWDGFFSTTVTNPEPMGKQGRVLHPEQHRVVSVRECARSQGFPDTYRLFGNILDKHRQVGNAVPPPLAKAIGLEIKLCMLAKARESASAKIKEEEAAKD

SMILES | pIC50 (DNMT1) | Relative selectivity index of DNMT1 vs DNMT 3B/3L (DNMT3B/3L) | inhibitory activity against EZH2 (EZH2) | Relative selectivity index of DNMT1 vs EZH2 (EZH2) | Relative selectivity index of DNMT1 vs LSD1 (LSD1) | inhibition at 50 µM [1, 2] | inhibition at 50 µM [1, 3] | inhibition at 50 µM [1, 4] | melting point
CC(C)NCC(O)COC(Cn1c2ccc(F)cc2c2cc(F)ccc21)Cn1c2ccc(F)cc2c2cc(F)ccc21 (centres unmarked) [WK-22, 1-((1,3-Bis(3,6-difluoro-9H-carbazol-9-yl)propan-2-yl)oxy)-3-(isopropylamino)propan-2-ol] | 5.31 | 0.03 | nearly no inhibitory activities | 0.96 | 0.02 | 64.3% | 98% | 95.7% | 89 to 91 °C
CC(C)NCC(O)COC(Cn1c2ccccc2c2cc(F)ccc21)Cn1c2ccccc2c2cc(F)ccc21 (centres unmarked) [WK-23, 1-((1,3-bis(3-fluoro-9H-carbazol-9-yl)propan-2-yl)oxy)-3-(isopropylamino)propan-2-ol] | 5.30 | 0.02 | nearly no inhibitory activities | 0.85 | 0.2 | 75.9% | 58.1% | 93.6% | 
